Article PMC12735688, “Discovery and Activity Evaluation of Novel Dibenzoxazepinone Derivatives as Glycogen Phosphorylase Inhibitors” (Molecules, 2025)
Where a name gives a salt, the structure may show the parent alone. Read-outs that look alike come from different tables or passages of the source.

Legend:
[1] = molecular target: T1, rabbit muscle glycogen phosphorylase a (RMGPa) (Oryctolagus cuniculus, UniProt P00489); experiment: RMGPa enzyme inhibition assay (phosphate release, malachite green); type: biochemical; settings: mean ± S.D. of three determinations; NI means no inhibition
T1 construct: purchased
T1 sequence (P00489 2-843 limits assumed): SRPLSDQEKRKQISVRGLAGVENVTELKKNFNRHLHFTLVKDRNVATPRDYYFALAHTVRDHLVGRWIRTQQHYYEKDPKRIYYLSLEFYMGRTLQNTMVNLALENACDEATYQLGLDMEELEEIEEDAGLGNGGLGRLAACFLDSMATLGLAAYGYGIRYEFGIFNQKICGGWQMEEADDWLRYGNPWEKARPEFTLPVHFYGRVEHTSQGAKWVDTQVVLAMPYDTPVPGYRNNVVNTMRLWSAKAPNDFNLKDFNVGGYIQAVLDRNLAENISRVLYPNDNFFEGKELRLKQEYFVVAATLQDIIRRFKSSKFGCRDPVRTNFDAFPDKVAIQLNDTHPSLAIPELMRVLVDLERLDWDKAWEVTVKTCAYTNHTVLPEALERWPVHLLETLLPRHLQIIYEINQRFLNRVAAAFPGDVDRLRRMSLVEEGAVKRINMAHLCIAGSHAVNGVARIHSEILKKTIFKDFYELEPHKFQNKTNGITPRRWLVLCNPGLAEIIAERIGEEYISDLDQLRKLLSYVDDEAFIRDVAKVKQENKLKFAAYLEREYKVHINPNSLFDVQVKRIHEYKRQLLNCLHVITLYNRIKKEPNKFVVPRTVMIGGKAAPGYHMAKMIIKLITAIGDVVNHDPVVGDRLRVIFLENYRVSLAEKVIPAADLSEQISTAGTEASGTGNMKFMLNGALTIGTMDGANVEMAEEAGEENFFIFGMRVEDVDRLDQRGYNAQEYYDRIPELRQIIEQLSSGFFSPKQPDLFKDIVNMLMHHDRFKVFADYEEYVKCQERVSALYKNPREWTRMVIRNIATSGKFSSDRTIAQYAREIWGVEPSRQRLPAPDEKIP
Description: The synthesized compounds were evaluated in an enzyme inhibition assay against rabbit muscle glycogen phosphorylase a (RMGPa), a commercially available enzyme that shares considerable sequence similarity with human liver GPa. As described previously, the activity of RMGPa was measured by detecting the release of phosphate from glucose-1-phosphate in the direction of glycogen synthesis. PSN-357, a GP inhibitor in clinical Phase II, was used as positive control.
The inhibitory activity of the test compounds against RMGPa was evaluated using a microplate reader (Bio-Rad Laboratories, Berkeley, CA, USA), based on the release of inorganic phosphate during glycogenolysis. First, the test compounds were dissolved in DMSO and diluted to various concentrations for IC50 determination. A 100 μL aliquot of buffer, containing 50 mM Hepes (pH = 7.2), 100 mM potassium chloride (KCl), 2.5 mM magnesium chloride (MgCl2), 0.5 mM glucose-1-phosphate, 1 mg/mL glycogen, and the test compound solution, was added to a 96-well Costar microplate (Corning Inc., New York, NY, USA). The reaction mixture was incubated at 22 °C for 25 min, after which 150 μL of solution containing 10 mg/mL ammonium molybdate and 0.38 mg/mL malachite green was added to stop the reaction. The absorbance of phosphate was measured at 620 nm. IC50 values were determined by fitting the inhibition data to a dose–response curve using a logistic derivative equation.

[2] = tested on: hyperglycemic mice induced by adrenaline; experiment: Acute hypoglycemic experiment in adrenaline-induced hyperglycemic mice; type: in vivo, C57BL/6J mice; settings: 400 mg/kg single oral dose, about 2 h after administration; model group 8.91 ± 0.69; p < 0.01; mean ± SEM
Description: First, its ability was investigated by oral administration with one dose of 0.5% CMC-NA (model group) or compound Id at different concentrations (12.5, 25 and 50 mg/kg) for treatment. Metformin (400 mg/kg) was selected as a positive control.
The animal experiments were conducted following the method described in reference. Male C57BL/6J mice (6–8 weeks old, 18–20 g) were obtained from Beijing Huafukang Biotechnology Co., Ltd. (Beijing, China), maintained under standard conditions (food/water ad libitum), and acclimatized for 1 week. After acclimatization, baseline blood glucose was measured via tail vein sampling. Subsequently, mice were randomized into 6 groups (10/group) by blood glucose/body weight, with no significant differences in initial blood glucose (mean ± SEM). Post-grouping, daily oral 0.5% CMC-Na (as vehicle) was given. On the night before the experimental day, mice were fasted overnight with free access to water. On the experimental day, mice were orally administered Compound Id (50, 25, 12.5 mg/kg), metformin (400 mg/kg, as positive control), or 0.5% CMC-Na, followed by subcutaneous 0.2 mg/kg adrenaline to induce hyperglycemia. Finally, blood glucose was measured/recorded at 0, 30, 60, 90, and 120 min post-administration via JPS-5 meter.

[3] = molecular target: T1, rabbit muscle glycogen phosphorylase a (RMGPa); design: method as in PMID 33906369; settings: previously reported parent compound; read-out: IC50 (RMGPa inhibition) of parent compound; cited from earlier work

SMILES | IC50 [1] [µM] | further results
CCCc1cc(OC)c2c(c1)C(=O)Nc1cc(NC(=O)c3cc4cc(Cl)ccc4[nH]3)ccc1O2 [Ie, 5-chloro-N-(3-methoxy-11-oxo-5-propyl-10,11-dihydrodibenzo[b,f][1,4]oxazepin-8-yl)-1H-indole-2-carboxamide] | 2.18 ± 0.156 | 
COc1ccc2[nH]c(C(=O)Nc3ccc4c(c3)NC(=O)c3ccc(C(F)(F)F)cc3O4)cc2c1 [IIc] | 0.84 ± 0.05 | 
CN(C)C(=N)N=C(N)N [Metformin, Metformin hydrochloride, reference compound] |  | blood glucose [2]: 6.57 ± 0.71 mmol/L
O=C1CCOc2ccc(NC(=O)c3cc4cc(Cl)ccc4[nH]3)cc2N1 [Compound 1] |  | IC50 [3]: 0.25 ± 0.05 µM
Cc1ccc2[nH]c(C(=O)Nc3ccc4c(c3)NC(=O)c3ccc(C(F)(F)F)cc3O4)cc2c1 [IIf] | 0.338 ± 0.055 | 
O=C(Nc1ccc2c(c1)NC(=O)c1ccc(C(F)(F)F)cc1O2)c1cc2cc(O)ccc2[nH]1 [IIb] | 0.723 ± 0.082 | 
COc1cnc2[nH]c(C(=O)Nc3ccc4c(c3)NC(=O)c3ccc(C(F)(F)F)cc3O4)cc2c1 [IId] | 1.79 ± 0.104 | 
